Here are results for 14 compounds from US7317033B2, “Substituted thiophenes: compositions, processes of making, and uses in disease treatment and diagnosis” (Sanofi-Aventis Deutschland GmbH, priority 2002, dated 2008).

Series [1] deals with T1, hNHE3 (Homo sapiens, UniProt P48764).
T1 construct: host or cells: cells, not specified
T1 sequence (P48764 26-834): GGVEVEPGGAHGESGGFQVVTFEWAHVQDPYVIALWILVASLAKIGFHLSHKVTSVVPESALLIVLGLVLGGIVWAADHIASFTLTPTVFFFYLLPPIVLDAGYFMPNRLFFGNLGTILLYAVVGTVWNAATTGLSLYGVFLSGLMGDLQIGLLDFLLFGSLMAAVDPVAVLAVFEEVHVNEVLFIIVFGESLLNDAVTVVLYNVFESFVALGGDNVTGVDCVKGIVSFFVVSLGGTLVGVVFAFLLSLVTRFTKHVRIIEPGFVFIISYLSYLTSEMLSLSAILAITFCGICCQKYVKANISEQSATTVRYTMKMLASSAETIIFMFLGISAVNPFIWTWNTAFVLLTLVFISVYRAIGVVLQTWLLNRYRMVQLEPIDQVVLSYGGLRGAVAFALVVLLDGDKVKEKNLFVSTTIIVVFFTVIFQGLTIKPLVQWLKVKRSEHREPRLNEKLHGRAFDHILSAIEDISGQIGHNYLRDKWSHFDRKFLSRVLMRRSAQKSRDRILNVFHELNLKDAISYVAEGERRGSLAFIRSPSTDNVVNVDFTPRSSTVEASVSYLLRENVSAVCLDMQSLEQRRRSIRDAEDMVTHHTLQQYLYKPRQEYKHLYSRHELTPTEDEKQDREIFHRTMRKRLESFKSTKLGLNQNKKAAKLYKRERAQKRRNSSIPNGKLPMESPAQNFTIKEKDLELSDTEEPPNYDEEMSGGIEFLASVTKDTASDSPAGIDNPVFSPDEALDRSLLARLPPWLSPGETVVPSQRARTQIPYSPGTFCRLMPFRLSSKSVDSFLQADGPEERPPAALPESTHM
Nature of the series: recovery of intracellular pH (pHi) after acidification, BCECF fluorescence, hNHE3. The series is classed as cell-based. The settings on record: pH recovery recorded for three minutes. The procedure: In this test, the recovery of the intracellular pH (pHi) after an acidification, which starts when the NHE is capable of functioning, even under bicarbonate-free conditions, was determined. For this purpose, the pHi was determined using the pH-sensitive fluorescent dye BCECF (Calbiochem, the precursor BCECF-AM is employed). The cells were initially loaded with BCECF. The BCECF fluorescence was determined in a “ratio fluorescence spectrometer” (Photon Technology International, South Brunswick, N.J., USA) with excitation wavelengths of 505 and 440 nm and an emission wavelength of 535 nm, and was converted into the pHi using calibration plots. The cells were incubated in NH4Cl buffer (pH 7.4) (NH4Cl buffer: 115 mM NaCl, 20 mM NH4Cl, 5 mM KCl, 1 mM CaCl2, 1 mM MgSO4, 20 mM Hepes, 5 mM glucose, 1 mg/ml BSA; a pH of 7.4 is established with 1 M NaOH) even during the BCECF loading. The intracellular acidification was induced by addition of 975 μl of an NH4Cl-free buffer (see below) to 25 μl aliquots of the cells incubated in NH4Cl buffer. The subsequent rate of pH recovery was recorded in the case of NHE1 for two minutes, in the case of NHE2 for five minutes and in the case of NHE3 for three minutes. To calculate the inhibitory power of the tested substances, the cells were initially investigated in buffers in which complete or absolutely no pH recovery took place. For complete pH recovery (100%), the cells were incubated in Na^+-containing buffer (133.8 mM NaCl, 4.7 mM KCl, 1.25 mM CaCl2, 1.25 mM MgCl2, 0.97 mM Na2HPO4, 0.23 mM NaH2PO4, 5 mM Hepes, 5 mM glucose, a pH of 7.0 is established with 1 M NaOH). To determine the 0% value, the cells were incubated in an Na^+-free buffer (133.8 mM choline chloride, 4.7 mM KCl, 1.25 mM CaCl2, 1.25 mM MgCl2, 0.97 mM K2HPO4, 0.23 mM KH2PO4, 5 mM Hepes, 5 mM glucose, a pH of 7.0 is established with 1 M KOH). The substances to be tested were made up in the Na^+-containing buffer. Recovery of the intracellular pH at each tested concentration of a substance was expressed as a percentage of the maximum recovery. Using the Sigma-Plot program, the IC50 value of the substance in question was calculated for the individual NHE subtypes using the percentages for pH recovery.

Series [2] concerns the target T2, rNHE3 (Rattus norvegicus, UniProt P26433).
T2 construct: host or cells: cells, not specified
Put plainly: recovery of intracellular pH (pHi) after acidification, BCECF fluorescence, rNHE3. The settings on record: pH recovery recorded for three minutes. The series is classed as cell-based. The procedure: In this test, the recovery of the intracellular pH (pHi) after an acidification, which starts when the NHE is capable of functioning, even under bicarbonate-free conditions, was determined. For this purpose, the pHi was determined using the pH-sensitive fluorescent dye BCECF (Calbiochem, the precursor BCECF-AM is employed). The cells were initially loaded with BCECF. The BCECF fluorescence was determined in a “ratio fluorescence spectrometer” (Photon Technology International, South Brunswick, N.J., USA) with excitation wavelengths of 505 and 440 nm and an emission wavelength of 535 nm, and was converted into the pHi using calibration plots. The cells were incubated in NH4Cl buffer (pH 7.4) (NH4Cl buffer: 115 mM NaCl, 20 mM NH4Cl, 5 mM KCl, 1 mM CaCl2, 1 mM MgSO4, 20 mM Hepes, 5 mM glucose, 1 mg/ml BSA; a pH of 7.4 is established with 1 M NaOH) even during the BCECF loading. […] The subsequent rate of pH recovery was recorded in the case of NHE1 for two minutes, in the case of NHE2 for five minutes and in the case of NHE3 for three minutes. […] Recovery of the intracellular pH at each tested concentration of a substance was expressed as a percentage of the maximum recovery. Using the Sigma-Plot program, the IC50 value of the substance in question was calculated for the individual NHE subtypes using the percentages for pH recovery.

As usually defined, the melting point is the temperature of the solid-liquid transition. For orientation: IC50 means the point on the concentration scale where inhibition reaches its midpoint. A low value points to higher potency.

Counter-ions that a name gives are not always drawn.

T2 sequence (P26433 29-831): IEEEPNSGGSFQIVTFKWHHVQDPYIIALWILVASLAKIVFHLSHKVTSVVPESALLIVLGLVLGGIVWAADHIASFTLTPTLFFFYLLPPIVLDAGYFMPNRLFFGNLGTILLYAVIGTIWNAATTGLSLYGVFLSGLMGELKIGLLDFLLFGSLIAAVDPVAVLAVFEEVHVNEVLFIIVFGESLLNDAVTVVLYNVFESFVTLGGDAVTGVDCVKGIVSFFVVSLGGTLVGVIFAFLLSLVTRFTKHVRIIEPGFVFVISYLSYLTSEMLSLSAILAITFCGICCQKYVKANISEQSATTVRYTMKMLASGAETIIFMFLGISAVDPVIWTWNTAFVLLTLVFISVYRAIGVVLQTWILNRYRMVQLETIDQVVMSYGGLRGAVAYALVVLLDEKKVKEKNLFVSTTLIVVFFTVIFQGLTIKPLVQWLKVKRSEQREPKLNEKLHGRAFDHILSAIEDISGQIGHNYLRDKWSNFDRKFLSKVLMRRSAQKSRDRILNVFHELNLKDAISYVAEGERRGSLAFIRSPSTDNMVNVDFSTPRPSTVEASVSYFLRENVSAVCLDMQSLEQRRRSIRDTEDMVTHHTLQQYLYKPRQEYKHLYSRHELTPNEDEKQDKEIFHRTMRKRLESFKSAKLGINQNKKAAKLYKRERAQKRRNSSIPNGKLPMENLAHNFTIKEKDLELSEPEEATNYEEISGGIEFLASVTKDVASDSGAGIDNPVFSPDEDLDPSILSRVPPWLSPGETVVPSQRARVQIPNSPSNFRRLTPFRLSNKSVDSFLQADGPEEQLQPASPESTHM

As for `Cc1csc(Cl)c1Nc1nc2cc(F)ccc2[nH]1` (as salt: hydrochloride) [Example 2, 2-Chloro-3N-(5-fluoro-2-benzimidazolyl)-4-methyl-3-thienylamine hydrochloride], the melting point lay within 200 to 202 °C.

Compound `Cc1csc(Cl)c1NC1=N[C@@H]2CCCC[C@H]2N1` (as salt: hydrochloride) [Example 16, trans-R,R-2-chloro-3N-(3a,4,5,6,7,7a-hexahydro-1H-2-benzimidazolyl)-4-methyl-3-thienylamine hydrochloride] registered a melting point of 260 to 262 °C. The compound `Cc1csc(Cl)c1Nc1nc2cc(F)ccc2[nH]1` [Example 2, 2-Chloro-3N-(5-fluoro-2-benzimidazolyl)-4-methyl-3-thienylamine hydrochloride] displayed an IC50 in series [1] of 620 nM. As for `Cc1csc(Cl)c1Nc1nc2ccccc2[nH]1` [Example 12, 2-Chloro-3N-(2-benzimidazolyl)-4-methyl-3-thienylamine hydrochloride], in series [2], half-maximal inhibition (IC50) required 120 nM. That is a sub-micromolar value. The same measure, in the same setting: to `Cc1csc(Cl)c1NC1=N[C@@H]2CCCC[C@H]2N1` [Example 16, trans-R,R-2-chloro-3N-(3a,4,5,6,7,7a-hexahydro-1H-2-benzimidazolyl)-4-methyl-3-thienylamine hydrochloride] belongs 270 nM. In series [1], `Cc1csc(Br)c1Nc1nc2ccccc2[nH]1` [Example 18, 2-Bromo-3N-(2-benzimidazolyl)-4-methyl-3-thienylamine hydrochloride] yielded a half-maximal inhibitory concentration (IC50) of 120 nM. Same read-out and setting: to `Cc1csc(Br)c1NC1=N[C@@H]2CCCC[C@H]2N1` [Example 19, trans-R,R-2-Bromo-3N-(3a,4,5,6,7,7a-hexahydro-1H-2-benz-imidazolyl)-4-methyl-3-thienylamine hydrochloride] belongs 560 nM. Same read-out and setting: to `Cc1csc(Cl)c1Nc1nc2c(O)cccc2[nH]1` [Example 38, 2-Chloro-3N-(4-hydroxy-2-benzimidazolylamino)-4-methylthiophene hydrochloride] belongs 840 nM; to `Cc1csc(Cl)c1N(C)c1nc2ccccc2[nH]1` [Example 44, (1H-Benzimidazol-2-yl)-(2-chloro-4-methylthiophen-3-yl)methylamine], 1590 nM; to `Clc1csc(Br)c1Nc1nc2ccccc2[nH]1` [Example 53, 2-Bromo-4-chloro-3N-(2-benzimidazolylamino)thiophene hydrochloride], 140 nM.

`Fc1ccc2[nH]c(Nc3c(Cl)csc3Cl)nc2c1` [Example 54, (2,4-Dichloro-thiophen-3-yl)-(5-fluoro-1H-benzoimidazol-2-yl)-amine-hydrochloride]: the IC50 in series [1] worked out at 220 nM. The same measure, in the same setting: to `Fc1cc2nc(Nc3c(Cl)csc3Cl)[nH]c2cc1F` [Example 56, (2,4-Dichloro-thiophen-3-yl)-(5,6-difluoro-1H-benzoimidazol-2-yl)-amine-hydrochloride] belongs 220 nM; to `Clc1cscc1NC1=N[C@H]2CCCC[C@@H]2N1` [Example 60, trans-(3aS,7aS)-4-Chloro-3N-(3a,4,5,6,7,7a-hexahydro-1H-2-benzimidazolyl)-3-thienylamine Hydrochloride], 190 nM; to `Clc1csc(Cl)c1NC1=N[C@@H]2CCCC[C@H]2N1` [Example 63, trans-R,R-2,4-Dichloro-3N-(3a,4,5,6,7,7a-hexahydro-1H-2-benzimidazolyl)-3-thienylamine Hydrochloride], 540 nM.
